Experimental data taken from article PMC9959130, “Effects of Side Chain and Peptide Bond Modifications on the Targeting Properties of Stabilized Minigastrin Analogs” (Pharmaceuticals, 2023).
Read-outs that look alike come from different tables or passages of the source.

Key:
human CCK2R = molecular target: T1, human CCK2R (Homo sapiens, UniProt P32239); assay: Calcium mobilization assay (fluo-4 AM) on A431-CCK2R cells; assay type: cell-based; settings: normalized to 10^−6 M pentagastrin, mean ± SEM of at least three independent experiments in triplicates
T1 construct: expressed in transfected cells; host or cells: A431 human epidermoid carcinoma cells, stably transfected (A431-CCK2R); originally provided by Dr. Luigi Aloj
T1 sequence (P32239 1-447): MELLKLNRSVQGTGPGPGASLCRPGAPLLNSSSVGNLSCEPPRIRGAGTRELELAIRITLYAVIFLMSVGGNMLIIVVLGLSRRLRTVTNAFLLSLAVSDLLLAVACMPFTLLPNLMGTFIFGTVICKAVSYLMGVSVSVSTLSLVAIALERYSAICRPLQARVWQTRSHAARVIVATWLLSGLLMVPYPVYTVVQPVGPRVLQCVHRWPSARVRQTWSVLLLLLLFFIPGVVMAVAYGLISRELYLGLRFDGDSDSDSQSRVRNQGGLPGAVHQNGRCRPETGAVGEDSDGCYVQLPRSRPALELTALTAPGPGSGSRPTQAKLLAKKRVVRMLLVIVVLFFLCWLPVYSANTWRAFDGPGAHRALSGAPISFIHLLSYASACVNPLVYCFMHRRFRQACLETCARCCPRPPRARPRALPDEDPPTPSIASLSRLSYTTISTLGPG
Source text: A431 human epidermoid carcinoma cells overexpressing human CCK2R through stable transfection (A431-CCK2R) and the same cell line transfected with the empty vector (A431-mock) were used for cell assays. The cells are constantly available in our laboratory and were originally provided by Dr. Luigi Aloj. All cell culture media and reagents were obtained from Invitrogen Corporation (Lofer, Austria) or Sigma-Aldrich (Darmstadt, Germany). Dulbecco’s modified Eagle’s medium (DMEM) supplemented with 10% (v/v) fetal bovine serum and 1% of 100x penicillin−streptomycin−glutamine was used for cell culture. The cells were passaged three times per week using a 10x 2.5% trypsin-EDTA solution in a 1:2–1:3 ratio.
Analog-induced receptor activation was evaluated by a calcium mobilization assay using the calcium-sensitive dye fluo-4 AM (ThermoFisher Scientific, Montigny-Le-Bretonneux, France), as previously described. Briefly, A431-CCK2R cells were seeded (60,000/well) in flat clear bottom black 96-well plates (Corning, Bagneaux-sur-Loing, France) coated with poly-L-ornithine (100 µg/mL, 1 h, 37 °C) (Sigma Aldrich, Saint Quentin Fallavier, France). Cytosolic Ca^2+ variations were measured before and after application of 50 µL of graded concentrations of the investigated peptides in the vicinity of the cells, and the effects on Ca^2+ mobilization were measured. Data were background corrected and normalized for the amplitudes caused by the medium alone (0%, no self-effect) or 10^−6 M pentagastrin (100%, maximal Ca^2+ mobilization response). Prism 4.0 software was used to calculate the EC50 values and the results were expressed as mean ± SEM for at least three independent experiments performed in triplicates.

[1] = cited from earlier work
Method: (−2.33 ± 0.23) > [^111In]In-DOTA-MGS5 (−2.0 ± 0.1) > [^111In]In-DOTA-[2Nal^8]MGS5 (−1.71 ± 0.19) > [^111In]In-DOTA-[DLys^1]MGS5 (−1.31 ± 0.11). […] For the time point of 24 h after incubation, lowest values were found for [^111In] ...

[2] = Biodistribution in BALB/c nude mice bearing A431-CCK2R/A431-mock xenografts; assay type: in vivo; settings: female, mouse, iv, 20 pmol, total radioactivity, 20 pmol, gallium-68, 1 h p.i., mean ± SD n = 4; for tissue uptake at 1 h: xenografted BALB/c nude mice, i.v.; for tissue to tissue ratio at 1 h: BALB/c nude mice
Method: The overall biodistribution and tumor targeting properties of selected radiolabeled peptides were evaluated in female athymic BALB/c nude mice (Charles River, Sulzfeld, Germany, age of 7 to 9 weeks). After tumor induction with 2 × 10^6 A431-CCK2R or A431-mock cells (subcutaneously injected in 200 μL DMEM into the right and left flank) and a waiting period of 10–14 days (sufficient to achieve tumors of ∼0.25 g), mice were randomly divided into groups of four and treated with a bolus injection of 150 µL of the injectable solution containing the radiolabeled peptide via a lateral tail vein to achieve an injected radioactivity of 150–200 kBq and a total injected peptide amount of ~20 pmol (n = 4 for each radiopeptide). For DOTA-[(N-Me)1Nal^8]MGS5, additional biodistribution studies were performed with gallium-68 (~0.5 MBq, 20 pmol) and lutetium-177 (~0.5 MBq, 20 pmol). The animals were euthanatized by cervical dislocation at 1 h (gallium-68) or 4 h p.i. (indium-111/ lutetium-177). The tumors and other tissues (blood, lung, heart, muscle, spleen, intestine, liver, kidney, stomach, and pancreas) were dissected, weighed, and the radioactivity measured in the γ-counter. The rest of the body and a standard of the solution injected was also measured together with the collected samples. The percentage of injected activity per gram of tissue (% IA/g) and the tumor-to-organ activity ratio of selected tissues were calculated for each mouse and time point studied. Origin software (Microcal Origin 6.1, Northampton, MA, USA) was used for statistical analysis (independent t-test for two populations; significance level p < 0.05).

Complex stability in PBS = assay type: physicochemical; settings: 1000 pmol/mL in PBS, room temperature, 4 h after incubation, n = 1
Method: In vitro stability studies were performed in human serum (n = 2). The radiolabeled peptides (1000 pmol/mL) were incubated at 37 °C and a sample of 100 μL was taken at 1, 4, and 24 h after incubation. After the precipitation of proteins with ACN at 1:1.5 (v/v), centrifugation (14,000 rpm, 2 min, centrifuge 5424, Eppendorf AG, Germany) and dilution with water at 1:1 (v/v), an aliquot of 100 μL of this solution was analyzed by HPLC. Radioligand breakdown was monitored and the percentage of intact radiopeptide was calculated using Chromeleon Dionex Software (Version 7.2.9.11323). Additionally, the radiolabeled peptides (1000 pmol/mL) were incubated in PBS (n = 1) at room temperature to confirm the complex stability as a control.

[3] = Distribution coefficient (LogD) in octanol/PBS; assay type: physicochemical; settings: radiolabeled peptide (111In-labeled where the label names no radiometal); shake-flask octanol/PBS, 100 pmol/mL, 15 min shaking at 1500 rpm, γ-counter; mean ± SD, n = 8
Method: The distribution coefficient (LogD) in octanol/PBS was determined by mixing 0.5 mL of the radiolabeled DOTA peptides diluted in PBS (100 pmol/mL) and 0.5 mL octanol in a 1.5 mL microcentrifuge tube (n = 8). After shaking for 15 min (MS3 Basic, IKA, Staufen, Germany) at 1500 rpm and a waiting time of 10 min to ensure appropriate separation of the two phases, 100 µL aliquots of each phase were pipetted into 4.5 mL tubes. The tubes were measured using a γ-counter (2480 Wizard2 3″, PerkinElmer Life Sciences and Analytical Instruments, formerly Wallac Oy, Turku, Finland) and the LogD value was determined using following equation: LogD=Log(cpmoctanol phase/cpmPBS phase)

[4] = Metabolic studies in BALB/c mice (intact radiopeptide by radio-HPLC); assay type: in vivo; settings: i.v., 2 nmol, 10 min p.i., two animals per peptide
Method: All animal experiments were approved by the Austrian Ministry of Science (BMWF-66.011/0075- WF/V/3b/2016) and performed in accordance with the Austrian Animal Protection Act. Metabolic studies characterizing the stability of selected radioligands against enzymatic degradation were carried out in 7 to 8 week old female BALB/c mice (Charles River, Sulzfeld, Germany). The mice (two animals for each peptide) were intravenously injected into a lateral tail vein with 5–10 MBq of the ^111In-labeled peptide derivatives, corresponding to 2 nmol total peptide. At the time point of 10 min p.i. the animals were euthanatized by cervical dislocation. A sample of urine and blood was immediately collected. Liver and kidneys were dissected, mixed with 20 mM HEPES buffer pH 7.3 (1:1, w/v) and homogenized using an Ultra-Turrax T8 homogenizer (IKA-Werke, Staufen, Germany) for 1 min. All samples taken were analyzed by analytical HPLC using the low-sensitivity loop for urine and the high-sensitivity loop for blood, liver and kidney. Before injection into the HPLC system, all samples except urine were treated with ACN and diluted with water as described for stability studies in human serum. The percentage of intact radiopeptide in the analyzed samples was calculated by integration of the different peaks found in the radiochromatogram using Chromeleon Dionex Software (Version 7.2.9.11323).

CCCC[C@@H](C(=O)N[C@@H](CC(=O)O)C(=O)N[C@@H](Cc1cccc2ccccc12)C(N)=O)N(C)C(=O)[C@H](Cc1c[nH]c2ccccc12)NC(=O)CNC(=O)[C@H](Cc1ccc(O)cc1)NC(=O)[C@H](C)NC(=O)[C@@H](CCC(=O)O)NC(=O)CN1CCN(CC(=O)O)CCN(CC(=O)O)CCN(CC(=O)O)CC1 [DOTA-MGS5, DOTA-DGlu-Ala-Tyr-Gly-Trp-(N-Me)Nle-Asp-1Nal-NH2, reference compound]
EC50 (human CCK2R): 7.9 ± 1.9 nM | LogD [1]: −2.0 ± 0.1

CCCC[C@@H](C(=O)N[C@@H](CC(=O)O)C(=O)N(C)[C@@H](Cc1cccc2ccccc12)C(N)=O)N(C)C(=O)[C@H](Cc1c[nH]c2ccccc12)NC(=O)CNC(=O)[C@H](Cc1ccc(O)cc1)NC(=O)[C@H](C)NC(=O)[C@@H](CCC(=O)O)NC(=O)CN1CCN(CC(=O)O)CCN(CC(=O)O)CCN(CC(=O)O)CC1 [[^68Ga]Ga-DOTA-[(N-Me)1Nal^8]MGS5, metal not drawn]
tissue uptake at 1 h ([2]; BALB/c nude, heart, read-out: Uptake in heart): 0.95 ± 0.32 %ID/g | tissue uptake at 1 h ([2]; BALB/c nude, intestine, read-out: Uptake in intestine): 0.82 ± 0.18 %ID/g | tissue uptake at 1 h ([2]; BALB/c nude, lung, read-out: Uptake in lung): 1.61 ± 0.42 %ID/g | tissue uptake at 1 h ([2]; BALB/c nude, muscle, read-out: Uptake in muscle): 0.45 ± 0.08 %ID/g | tissue uptake at 1 h ([2]; BALB/c nude, spleen, read-out: Uptake in spleen): 1.19 ± 0.25 %ID/g | tissue to tissue ratio at 1 h ([2]; athymic BALB/c nude, A431-CCK2R xenograft / blood, A431-CCK2R xenograft, read-out: tumor-to-organ ratio: blood): 6.03 ± 2.26 | tissue to tissue ratio at 1 h ([2]; athymic BALB/c nude, A431-CCK2R xenograft / kidney, A431-CCK2R xenograft, read-out: tumor-to-organ ratio: kidney): 2.36 ± 1.14 | tissue to tissue ratio at 1 h ([2]; athymic BALB/c nude, A431-CCK2R xenograft / stomach, A431-CCK2R xenograft, read-out: tumor-to-organ ratio: stomach): 10.2 ± 3.5 | tissue uptake at 1 h ([2]; athymic BALB/c nude, A431-CCK2R xenograft, read-out: Uptake in A431-CCK2R xenograft): 15.7 ± 2.21 %ID/g | tissue uptake at 1 h ([2]; athymic BALB/c nude, A431-mock xenograft, read-out: Uptake in A431-mock xenograft): 1.51 ± 0.98 %ID/g | tissue uptake at 1 h ([2]; athymic BALB/c nude, blood, read-out: Uptake in blood): 2.82 ± 0.88 %ID/g | tissue uptake at 1 h ([2]; athymic BALB/c nude, kidneys, read-out: Uptake in kidneys): 7.7 ± 3.1 %ID/g | tissue uptake at 1 h ([2]; athymic BALB/c nude, liver, read-out: Uptake in liver): 2.25 ± 0.55 %ID/g | tissue uptake at 1 h ([2]; athymic BALB/c nude, pancreas, read-out: Uptake in pancreas): 0.87 ± 0.29 %ID/g | tissue uptake at 1 h ([2]; athymic BALB/c nude, stomach, read-out: Uptake in stomach): 1.63 ± 0.41 %ID/g | Stability of the DOTA-complex in PBS (Complex stability in PBS): 99.2% | LogD [3]: −2.2 ± 0.1

CCCC[C@@H](C(=O)N[C@@H](CC(=O)O)C(=O)N(C)[C@@H](Cc1cccc2ccccc12)C(N)=O)N(C)C(=O)[C@H](Cc1c[nH]c2ccccc12)NC(=O)CNC(=O)[C@H](Cc1ccc(O)cc1)NC(=O)[C@H](C)NC(=O)[C@@H](CCC(=O)O)NC(=O)CN1CCN(CC(=O)O)CCN(CC(=O)O)CCN(CC(=O)O)CC1 [[^111In]In-DOTA-[(N-Me)1Nal^8]MGS5] [metal not drawn]
Intact radiopeptide in kidney ([4]; kidney homogenate): 40.2 ± 4.1% | Intact radiopeptide in liver ([4]; liver homogenate): 94.9 ± 2.8% | Intact radiopeptide in blood [4]: 98.4 ± 0.1% | Intact radiopeptide in urine [4]: 15.9 ± 3.4% | Stability of the DOTA-complex in PBS (Complex stability in PBS): 96.2%
